# Data as given in patent US9232796B2, “Herbicidal compositions comprising 4-amino-3-chloro-5-fluoro-6-(4-chloro-2-fluoro-3-methoxyphenyl) pyridine-2-carboxylic acid or a derivative thereof and acetyl-CoA carboxylase (ACCase) inhibitors” (DOW AGROSCIENCES LLC, priority 2012, dated 2016).
# Where “and” joins values, the source holds several entries; their conditions need not be identical. Equal entries are not always repeated.
# Tests used:
# ECHCG = test: Example I postemergence foliar-applied, greenhouse, direct seeded rice weeds; assay type: in vivo, Echinochloa crusgalli (L.) Beauv.
# Excerpt: (§1) Seeds or nutlets of the desired test plant species were planted in a soil matrix prepared by mixing a loam or sandy loam soil (e.g., 28.6 percent silt, 18.8 percent clay, and 52.6 percent sand, with a pH of about 5.8 and an organic matter content of about 1.8 percent) and calcareous grit in an 80 to 20 ratio. The soil matrix was contained in plastic pots with a volume of 1 quart and a surface area of 83.6 square centimeters (cm^2). When required to ensure good germination and healthy plants, a fungicide treatment and/or other chemical or physical treatment was applied. The plants were grown for 8-22 days in a greenhouse with an approximate 14 hr. photoperiod which was maintained at about 29° C. during the day and 26° C. during the night. Nutrients (Peters Excel® 15-5-15 5-Ca 2-Mg and iron chelate) were applied in the irrigation solution as needed and water was added on a regular basis. Supplemental lighting was provided with overhead metal halide 1000-Watt lamps as necessary. The plants were employed for testing when they reached the first through fourth true leaf stage.
# (§2) Treatments consisted of the acid or esters of 4-amino-3-chloro-5-fluoro-6-(4-chloro-2-fluoro-3-methoxy-phenyl)pyridine-2-carboxylic acid (Compound A), each formulated as an SC (suspension concentrate), and various herbicidal components alone and in combination.
# (§3) Other herbicidal components were applied on an acid equivalent (ae) or active ingredient (ai) basis and included acetyl coA carboxylase (ACCase)-inhibiting herbicides (cyclohexanedione and aryloxyphenoxypropionate chemical classes) cyhalofop-butyl formulated as Clincher® SF (285 gr ai/L EC), diclofop-methyl formulated as Hoelon® 3EC, fenoxaprop-p-ethyl+isoxadifen-ethyl formulated as RiceStar® HT (0.58 lb./gal EC), fenoxaprop-p-ethyl+mefenpyr diethyl formulated as Puma® IEC, metamifop formulated as Metamifop EC, haloxyfop-methyl formulated as Gallant Super®, fluazifop-p-butyl formulated as Fusilade® DX, quizalofop-p-ethyl formulated as Assure® II, profoxydim formulated as Aura® 20EC, clethodim applied as Intensity®, sethoxydim formulated as Poast®, and tralkoxydim formulated as Achieve®.
# (§4) Treatment requirements were calculated based upon the rates being tested, the concentration of active ingredient or acid equivalent in the formulation, and a 12 mL application volume at a rate of 187 L/ha.
# (§5) For treatments comprised of formulated compounds, measured amounts of compounds were placed individually in 25 mL glass vials and diluted in a volume of 1.25% (v/v) Agri-Dex® crop oil concentrated to obtain 12× stock solutions. […] Application solutions were prepared by adding an appropriate amount of each stock solution (e.g., 1 mL) and diluted to the appropriate final concentrations with the addition of 10 mL of an aqueous mixture of 1.25% (v/v) crop oil concentrate so that the final spray solutions contained 1.25+/−0.05% (v/v) crop oil concentrate.
# (§6) All stock solutions and applications solutions were visually inspected for compound compatibility prior to application. Spray solutions were applied to the plant material with an overhead Mandel track sprayer equipped with a 8002E nozzles calibrated to deliver 187 L/ha over an application area of 0.503 m^2 at a spray height of 18 to 20 inches (46 to 50 cm) above average plant canopy height. Control plants were sprayed in the same manner with the solvent blank.
# (§7) The treated plants and control plants were placed in a greenhouse as described above and watered by sub-irrigation to prevent wash-off of the test compounds. After approximately 3 weeks, the condition of the test plants as compared with that of the untreated plants was determined visually and scored on a scale of 0 to 100 percent where 0 corresponds to no injury or growth inhibition and 100 corresponds to complete kill. […]
# ECHCO = test: as above; assay type: in vivo, Echinochloa colona (L.) Link
# Excerpt: as §1, §2, §3, §4, §5, §6, §7
# ECHOR = test: Example V (second) postemergence foliar-applied ternary mixtures, greenhouse, direct seeded rice weeds; assay type: in vivo, Echinochloa oryzoides (Ard.) Fritsch
# Experimental: Seeds or nutlets of the desired test plant species were planted in a soil matrix prepared by mixing a sandy loam or loam soil (e.g., 32 percent silt, 23 percent clay, and 45 percent sand, with a pH of about 6.5 and an organic matter content of about 1.9 percent) and calcareous grit in an 80 to 20 ratio. The soil matrix was contained in plastic pots with a volume of 1 quart and a surface area of 83.6 square centimeters (cm^2). […] The plants were grown for 8-22 days in a greenhouse with an approximate 14 hr. photoperiod which was maintained at about 29° C. during the day and 26° C. during the night. Nutrients (Peters Excel® 15-5-15 5-Ca 2-Mg and iron chelate) were applied in the irrigation solution as needed and water was added on a regular basis. Supplemental lighting was provided with overhead metal halide 1000-Watt lamps as necessary. The plants were employed for testing when they reached the first through fourth true leaf stage.
# Treatments consisted of the benzyl ester of 4-amino-3-chloro-5-fluoro-6-(4-chloro-2-fluoro-3-methoxy-phenyl)pyridine-2-carboxylic acid (Compound A), formulated as an SC (suspension concentrate), an ACCase inhibitor, and a third herbicidal component, each applied alone and in ternary combination. Forms of compound A were applied on an acid equivalent basis.
# as §5, with “concentrate” for “concentrated”, “9” for “10”, “1.25%” for “1.25+/−0.05%”
# As required, additional water and/or 97:3 v/v acetone/DMSO was added to individual application solutions so that the final acetone and DMSO concentrations of the application solutions being compared were 8.1% and 0.25%, respectively.
# as §6, with “18” for “18 to 20”, “(46” for “(46 to 50”
# The treated plants and control plants were placed in a greenhouse as described above and watered by sub-irrigation to prevent wash-off of the test compounds. After approximately 3 weeks, the condition of the test plants as compared with that of the untreated plants was determined visually and scored on a scale of 0 to 100 percent where 0 corresponds to no injury or growth inhibition and 100 corresponds to complete kill.
# Colby's equation was used to determine the herbicidal effects expected from the mixtures (Colby, S. R. 1967. Calculation of the synergistic and antagonistic response of herbicide combinations. Weeds 15:20-22.).
# The following equation was used to calculate the expected activity of mixtures containing three active ingredients, A, B, and C: Expected=A+B+C−((A×B+A×C+B×C)/100)+(A×B×C/10000)
# ISCRU = test: Example I postemergence foliar-applied, greenhouse, direct seeded rice weeds; assay type: in vivo, Ischaemum rugosum Salisb.
# Excerpt: as §1, §2, §3, §4, §5
# All stock solutions and applications solutions were visually inspected for compound compatibility prior to application. […]
# as §7
smiles,measurement,setting,value
"C[C@@H](Oc1ccc(Oc2nc3ccc(Cl)cc3o2)cc1)C(=O)N(C)c1ccccc1F [Metamifop, (2R)-2-[4-[(6-chloro-2-benzoxazolyl)oxy]phenoxy]-N-(2-fluorophenyl)-N-methylpropanamide]",Visual Weed Control (%) - 22 DAA ECHCG Obs,ECHCG; 9.38 gai/ha,0%
same,Visual Weed Control (%) - 22 DAA ECHCG Obs,ECHCG; 18.75 gai/ha,40%
same,Visual Weed Control (%) - 22 DAA ECHCG Obs,ECHCG; 37.5 gai/ha,70%
"CCC/C(=N\OCC(C)Oc1ccc(Cl)cc1)C1=C(O)CC(C2CCCSC2)CC1=O (stereo not shown) [Profoxydim, 2-[1-[[2-(4-chlorophenoxy)propoxy]imino]butyl]-3-hydroxy-5-(tetrahydro-2H-thiopyran-3-yl)-2-cyclohexen-1-one, reference compound]",Visual Weed Control (%) - 20 DAA ECHCO Obs,ECHCO; 12.5 gai/ha,70%
same,Visual Weed Control (%) - 22 DAA ECHOR Obs,ECHOR; 3.12 gai/ha,0%
"COc1c(Cl)ccc(-c2nc(C(=O)OCc3ccccc3)c(Cl)c(N)c2F)c1F [Compound A Benzyl Ester, benzyl ester of 4-amino-3-chloro-5-fluoro-6-(4-chloro-2-fluoro-3-methoxy-phenyl)pyridine-2-carboxylic acid]",Visual Weed Control (%) - 26 DAA ISCRU Obs,ISCRU; 8.75 gae/ha,18%
same,Visual Weed Control (%) - 26 DAA ISCRU Obs,ISCRU; 17.5 gae/ha,33%
same,Visual Weed Control (%) - 21 DAA ECHCO Obs,ECHCO; 8 gae/ha,40%
same,Visual Weed Control (%) - 21 DAA ECHCO Obs,ECHCO; 16 gae/ha,70%
same,Visual Weed Control (%) - 21 DAA ECHCO Obs,ECHCO; 32 gae/ha,95%
same,Visual Weed Control (%) - 22 DAA ECHCG Obs,ECHCG; 8 gae/ha,35%
same,Visual Weed Control (%) - 22 DAA ECHCG Obs,ECHCG; 16 gae/ha,65%
same,Visual Weed Control (%) - 22 DAA ECHCG Obs,ECHCG; 32 gae/ha,80%
same,Visual Weed Control (%) - 22 DAA ECHOR Obs,ECHOR; 8 gae/ha,13% and 25%
same,Visual Weed Control (%)- 22 DAA ECHOR Obs,ECHOR; 8 gae/ha,13%
same,Visual Weed Control (%) - 22 DAA ECHOR Obs,ECHOR; 16 gae/ha,35%
same,Visual Weed Control (%)- 22 DAA ECHOR Obs,ECHOR; 16 gae/ha,40%
"COc1c(Cl)ccc(-c2nc(C(=O)O)c(Cl)c(N)c2F)c1F [Compound A Acid, 4-amino-3-chloro-6-(4-chloro-2-fluoro-3-methoxyphenyl)-5-fluoropyridine-2-carboxylic acid]",Visual Weed Control (%) - 26 DAA ISCRU Obs,ISCRU; 8.75 gae/ha,37%
same,Visual Weed Control (%) - 26 DAA ISCRU Obs,ISCRU; 17.5 gae/ha,63%
same,Visual Weed Control (%) - 20 DAA ECHCO Obs,ECHCO; 4.38 gae/ha,40%
same,Visual Weed Control (%) - 20 DAA ECHCO Obs,ECHCO; 8.75 gae/ha,60%
same,Visual Weed Control (%) - 20 DAA ECHCO Obs,ECHCO; 17.5 gae/ha,85%
"CCCCOC(=O)[C@@H](C)Oc1ccc(Oc2ccc(C#N)cc2F)cc1 [Cyhalofop-butyl, butyl(2R)-2-[4-(4-cyano-2-fluorophenoxy)phenoxy]propanoate, reference compound]",Visual Weed Control (%) - 26 DAA ISCRU Obs,ISCRU; 140 gai/ha,10%
same,Visual Weed Control (%)- 22 DAA ECHOR Obs,ECHOR; 17.5 gai/ha,0%
same,Visual Weed Control (%) - 22 DAA ECHOR Obs,ECHOR; 35 gai/ha,15%
same,Visual Weed Control (%)- 22 DAA ECHOR Obs,ECHOR; 35 gai/ha,15%
"CCOC(=O)[C@@H](C)Oc1ccc(Oc2cnc3cc(Cl)ccc3n2)cc1 [Quizalofop-p-ethyl, ethyl(2R)-2-[4-[(6-chloro-2-quinoxalinyl)oxy]phenoxy]propanoate, reference compound]",Visual Weed Control (%) - 22 DAA ECHCG Obs,ECHCG; 3.75 gai/ha,20%
same,Visual Weed Control (%) - 22 DAA ECHCG Obs,ECHCG; 7.5 gai/ha,30%
